Source: PMC10999543, “Identification of kinase modulators as host-directed therapeutics against intracellular methicillin-resistant Staphylococcus aureus” (Frontiers in Cellular and Infection Microbiology, 2024)
Like-named read-outs stand apart in the source and are kept apart here.

Experiments:
HeLa cells = type: cell-based, human; conditions: for cytotoxicity / cell viability by LDH-release: 30 µM
Protocol: Before harvesting or lysing the cells of the intracellular infection assays, the supernatant from the cells was collected to quantify LDH release by the cells using the LDH cytotoxicity detection kit (Roche, Merck, Darmstadt, Germany) according to the manufacturer’s instructions. Triton X-100 results in maximum LDH release by permeabilizing the cells and was used as positive control. Quantification was performed with the EnVision plate reader.

MRSA = type: in vivo, zebrafish; conditions: for survival rate of MRSA-infected zebrafish embryos: 10 µM, after 4 days, 1000 CFUs MRSA, DMSO 57.5%, uninfected 93.8%
Protocol: Zebrafish embryos were dechorionated at 24 hpf. The OD600 of a log-phase MRSA culture was centrifuged and dissolved in PBS with 2% polyvinylpyrrolidone (Merck) to improve homogeneity of the bacterial suspension. The OD600 was measured and the bacterial suspension was diluted to a final concentration of 10^9 CFUs/ml accordingly. The preparation of injection needles and the equipment used for microinjections have been previously described ([Benard et al., 2012]). At 28 hpf, zebrafish embryos were anesthetized in 200 µg/ml buffered ethyl 3-aminobenzoic acid (Tricaine, Sigma-Aldrich) and injected in the blood island with a bacterial dose of 1 nl containing 1000 CFUs of MRSA. Infected embryos were collected and randomly distributed over 6-wells plates with ten embryos/well. At 30 hpf, the infected embryos were given kinase inhibitors or DMSO as negative control. Survival of the embryos was scored at 48, 72, 96 and 120 hpf.

[1] = system: HeLa, MelJuSo, A549, MCF7 and PMA-differentiated THP-1 cells; test: Light microscopy of cell morphology (cytopathogenic effects); type: cell-based, human; conditions: for changes in cell morphology / cytopathogenic effects by light microscopy: 10 µM, HeLa, MelJuSo, A549, MCF7, THP-1 cells
zebrafish embryos = test: Zebrafish embryo toxicity test; type: in vivo; conditions: for further signs of toxicity in zebrafish embryos: serial dilutions; for concentration well tolerated in zebrafish embryos: wild type AB/TL
Protocol: All experiments with zebrafish were done on embryos or larvae up to 5 days post fertilization, which have not yet reached the free-feeding stage and which were of the wild type AB/TL line. Fertilized embryos were maintained at 28°C and kept in egg water containing 60 μg/ml Instant Ocean Sea Salt (Sera, Heinsberg Germany). Zebrafish embryos were dechorionated with Dumont #5 forceps (Fine Science Tools Inc., Foster City, CA, USA) at 24 hours post fertilization (hpf) and transferred to 96-wells plates with each well containing a single embryo. Subsequently, the embryos were treated with kinase inhibitors or DMSO at 30 hpf. The health status of the embryos was assessed at 120 hpf. Healthy embryos were given a health score of 5. Health points were withdrawn for each of the following symptoms: no responsiveness to physical stimulation, cranial malformations, oedema or tail malformations. Dead embryos were given a health score of 0.

[2] = system: intracellular MRSA in MCF7 cells; test: Gentamicin protection assay with CFU count in MRSA-infected MCF7 cells; type: cell-based, Staphylococcus aureus; conditions: 10 µM, n=7
Protocol: The cells were resuspended in cell culture medium without antibiotics, seeded with 10,000 cells/well into Costar flat-bottom 96-well plates (Corning, Amsterdam, the Netherlands), and were incubated overnight at 37°C/5% CO2. The next day, the bacteria were centrifuged at ≥1800 g for 15 min and resuspended in cold PBS + 5 mM ethylenediaminetetraacetic acid (EDTA). The number of CFUs present in the bacterial suspension was estimated from the optical density at 600 nm (OD600) by assuming 8x10^8 CFUs to be present in a bacterial suspension with OD600 = 1, based on prior titrations. The bacterial suspension was diluted in cell culture medium without antibiotics and added to the cells. Accuracy of the multiplicity of infection (MOI) was validated by plating serial dilutions of the MRSA inoculums on Difco TS agar plates (BD Biosciences). The calculated mean MOI throughout all experiments was 6.8 ± 4.6 (mean ± SD). Infected cells were centrifuged for 3 min at 150 g and incubated for 1 hour at 37°C/5% CO2. Next, the cells were incubated with fresh cell culture medium supplemented with 30 µg/ml gentamicin sulphate (Lonza BioWhittaker, Basel, Switzerland) for 15 min at 37°C/5% CO2 to kill residual extracellular bacteria. Infected cells were incubated overnight at 37°C/5% CO2 in cell culture medium in the presence of kinase inhibitors and 5 µg/ml gentamicin sulphate-containing medium to prevent the growth of extracellular bacteria. The solvent of the compounds, DMSO, was used at equal % v/v as a negative control. For the screen, each compound was tested in triplicate, on separate cell culture plates, resulting in triplicate values for each kinase inhibitor.
Infected cells were lysed in sterile water + 0.05% UltraPure SDS solution (Invitrogen, ThermoFisher Scientific) to release intracellular bacteria. Bacterial suspensions and lysates of cells infected with MRSA were 5-fold serially diluted and 10-μl drops were plated on square TS agar plates. The plates were left to dry and incubated overnight at 37°C/5% CO2.

intracellular MRSA = type: cell-based, Staphylococcus aureus; conditions: for %GFP+ rep 1 / z-scoreMRSA+ rep 1: replicate 1; for %GFP+ rep 2 / z-scoreMRSA+ rep 2: replicate 2; for %GFP+ rep 3 / z-scoreMRSA+ rep 3: replicate 3; for z-scoreMRSA+ mean: mean of 3 replicates
How it was run: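 HeLa, MRSA-GFP at MOI ~6.8, 1 h infection; gentamicin 30 µg/ml for 15 min; inhibitor plus gentamicin 5 µg/ml overnight, 37°C/5% CO2; triplicate plates; FACS %GFP+ and cell count; hit = z ≤ -2 MRSA+, z ≥ -3 count.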

[3] = PKIS compound screen raw data, MRSA-infected HeLa cells
[4] = PKIS compound screen, MRSA-infected HeLa cells
[5] = PKIS compound screen, Yes/No call
[6] = PKIS compound screen, Yes/No call (effect without cell death)
[7] = PKIS compounds raw data, MRSA-infected HeLa cells
[8] = compound screen, MRSA-infected HeLa cells

| SMILES | cytotoxicity / cell viability by LDH-release (HeLa cells; MRSA-infected HeLa cells) | changes in cell morphology / cytopathogenic effects by light microscopy [1] | reduction in bacterial burden (CFU) [2] | effect (intracellular MRSA; [5]) | hit (intracellular MRSA; [6]) | z-scoreMRSA+ mean (intracellular MRSA; PKIS compound screen) | z-scoreMRSA+ rep 1 (intracellular MRSA; PKIS compound screen) | z-scoreMRSA+ rep 2 (intracellular MRSA; PKIS compound screen) | z-scoreMRSA+ rep 3 (intracellular MRSA; PKIS compound screen) | %GFP+ rep 1 (intracellular MRSA; [7]) [%] | %GFP+ rep 2 (intracellular MRSA; [7]) [%] | %GFP+ rep 3 (intracellular MRSA; [7]) [%] | survival rate of MRSA-infected zebrafish embryos (MRSA) [%] | further signs of toxicity in zebrafish embryos (zebrafish embryos; 120 hpf) | concentration well tolerated in zebrafish embryos (zebrafish embryos; zebrafish, in vivo) [µM] | also measured |
| --- | --- | --- | --- | --- | --- | --- | --- | --- | --- | --- | --- | --- | --- | --- | --- | --- |
| CC(C)c1nc(-c2cccc(NS(=O)(=O)c3c(F)cccc3F)c2F)c(-c2ccnc(Nc3ccc(N4CCOCC4)nc3)n2)s1 [GSK2008607A] | became cytotoxic | cytopathogenic effects were observed | reductions in CFU counts | No | No and Yes | -0.97 | -1.10 | -1.14 | -0.66 | 21.4 | 20.1 | 23.7 |  |  |  | toxicity in MRSA-infected zebrafish embryos (MRSA; 1 µM): severe compound-related toxicity; cytopathogenic effects in HeLa cells ([1]; 1 µM): cytopathogenic effects were already observed; embryos that died, of 15 (zebrafish embryos; 1 µM, 120 hpf): one; symptoms of surviving zebrafish embryos (zebrafish embryos; 3 and 10 µM, 120 hpf): oedema of the heart sac and yolk, as well as unresponsiveness to physical stimulation; zebrafish embryo mortality (zebrafish embryos; 3 and 10 µM, treated 30 hpf, scored 120 hpf): caused zebrafish embryo mortality; concentrations exhibiting toxicity in zebrafish embryos (zebrafish embryos; zebrafish, in vivo): ≥ 1 µM; embryos that did not respond to physical stimulation, of 15 (zebrafish embryos; zebrafish, in vivo): another; embryos with cranial malformations, of 15 (zebrafish embryos; zebrafish, in vivo): two; embryos with oedema, of 15 (zebrafish embryos; zebrafish, in vivo): three; %GFP+ rep 1 (intracellular MRSA; [3]): 8.4%; %GFP+ rep 2 (intracellular MRSA; [3]): 9.2%; %GFP+ rep 3 (intracellular MRSA; [3]): 10.2%; z-scoreMRSA+ mean (intracellular MRSA; [4]): -2.86; z-scoreMRSA+ rep 1 (intracellular MRSA; [4]): -2.77; z-scoreMRSA+ rep 2 (intracellular MRSA; [4]): -2.79; z-scoreMRSA+ rep 3 (intracellular MRSA; [4]): -3.01; effect (intracellular MRSA; PKIS compound screen, Yes/No call on z-scoreMRSA+): Yes |
| COc1ccc2[nH]c3c4[nH]c5ccc(OC)cc5c4c4c(c3c2c1)C(=O)NC4=O [GW296115X] | limited cytotoxicity | slight changes in cell morphology | 75% |  |  |  |  |  |  | 2.3 | 1.8 | 2.2 | 77.5 | no further signs of toxicity were observed | ≤ 10 | cell viability of MRSA-infected cells (HeLa cells; HeLa cells, Figure 5K): able to fully restore the loss in cell viability; cell viability of MRSA-infected cells (LDH-release) (HeLa cells; MRSA-infected HeLa cells, 10 µM, Figure 2G): rescued the loss of viability; host cell viability when bafilomycin A1 is added (HeLa cells; MRSA-infected HeLa cells, combined with bafilomycin A1 (100 nM), Figure 5I): reverted; z-scoreMRSA+ (z-score of GFP-positive cells) (intracellular MRSA; 10 µM, 24 h, HeLa cells infected with GFP-expressing MRSA): -3.82; MRSA-infected cells (mean ± SD) (intracellular MRSA; 10 µM, 24 h, HeLa cells, DMSO 14.6% ± 1.0%): 2.1% ± 0.26; effect (intracellular MRSA; Yes/No call from z-scoreMRSA+): Yes; hit (intracellular MRSA; Yes/No: effect without cell death): Yes; z-scoreMRSA+ mean (intracellular MRSA; [8]): -3.82; z-scoreMRSA+ rep 1 (intracellular MRSA; [8]): -3.48; z-scoreMRSA+ rep 2 (intracellular MRSA; [8]): -3.91; z-scoreMRSA+ rep 3 (intracellular MRSA; [8]): -4.06 |
| O=S(=O)(CCNCc1ccc(-c2ccc3ncnc(Nc4ccc(OCc5cccc(F)c5)c(Cl)c4)c3c2)o1)c1ccccc1 [GW633459A] | only marginally affected | not observed | reductions in CFU counts | Yes | Yes | -2.34 | -2.22 | -2.06 | -2.75 | 6.2 | 7.3 | 6.6 | 67.5 | no further signs of toxicity were observed | ≤ 10 |  |
